Laboratory results as given in BindingDB's records for doi:10.1021/jm025595i (Enanta Pharmaceuticals, 2003).

Tests used:
[1] = Compound was evaluated for its inhibitory activity in a calcineurin inhibition assay
[2] = Compound was evaluated for its inhibitory activity in a calcineurin inhibition assay (MOM)
[3] = Compound was evaluated for its inhibitory activity in a calcineurin inhibition assay (morn)
[4] = Compound was evaluated for its inhibitory activity in a calcineurin inhibition assay (MTM)

CC[C@@H]1NC(=O)[C@H]([C@H](O)[C@H](C)C/C=C/C(=O)OCCF)N(C)C(=O)[C@H](C(C)C)N(C)C(=O)[C@H](CC(C)C)N(C)C(=O)[C@H](CC(C)C)N(C)C(=O)[C@@H](C)NC(=O)[C@H](C)NC(=O)[C@H](CC(C)C)N(C)C(=O)[C@H](C(C)C)NC(=O)[C@H](CC(C)C)N(C)C(=O)CN(C)C1=O [6-(5-Ethyl-11,17,26,29-tetraisobutyl-14,32-diisopropyl-1,7,10,16,20,23,25,28,31-nonamethyl-3,6,9,12,15,18,21,24,27,30,33-undecaoxo-1,4,7,10,13,16,19,22,25,28,31undecaaza-cyclotritriacont-2-yl)-6-hydroxy-5-methyl-hex-2-enoic acid 2-fluoro-ethyl ester] showed an IC50 [1] of 636 nM.
For CCOC(=O)/C=C/C[C@@H](C)[C@@H](O)[C@H]1C(=O)N[C@@H](CC)C(=O)N(C)CC(=O)N(C)[C@@H](CC(C)C)C(=O)N[C@@H](C(C)C)C(=O)N(C)[C@@H](CC(C)C)C(=O)N[C@@H](C)C(=O)N[C@H](C)C(=O)N(C)[C@@H](CC(C)C)C(=O)N(C)[C@@H](CC(C)C)C(=O)N(C)[C@@H](C(C)C)C(=O)N1C [6-(5-Ethyl-11,17,26,29-tetraisobutyl-14,32-diisopropyl-1,7,10,16,20,23,25,28,31-nonamethyl-3,6,9,12,15,18,21,24,27,30,33-undecaoxo-1,4,7,10,13,16,19,22,25,28,31undecaaza-cyclotritriacont-2-yl)-6-hydroxy-5-methyl-hex-2-enoic acid ethyl ester], the IC50 [1] was 363 nM.
Molecule CC[C@@H]1NC(=O)[C@H]([C@H](O)[C@H](C)C/C=C/C(=O)OCOC)N(C)C(=O)[C@H](C(C)C)N(C)C(=O)[C@H](CC(C)C)N(C)C(=O)[C@H](CC(C)C)N(C)C(=O)[C@@H](C)NC(=O)[C@H](C)NC(=O)[C@H](CC(C)C)N(C)C(=O)[C@H](C(C)C)NC(=O)[C@H](CC(C)C)N(C)C(=O)CN(C)C1=O [6-(5-Ethyl-11,17,26,29-tetraisobutyl-14,32-diisopropyl-1,7,10,16,20,23,25,28,31-nonamethyl-3,6,9,12,15,18,21,24,27,30,33-undecaoxo-1,4,7,10,13,16,19,22,25,28,31undecaaza-cyclotritriacont-2-yl)-6-hydroxy-5-methyl-hex-2-enoic acid methoxymethyl ester] has an IC50 [2] of 1920 nM and an IC50 [3] of 742 nM.
In the case of CC[C@@H]1NC(=O)[C@H]([C@H](O)[C@H](C)C/C=C/C(=O)OC)N(C)C(=O)[C@H](C(C)C)N(C)C(=O)[C@H](CC(C)C)N(C)C(=O)[C@H](CC(C)C)N(C)C(=O)[C@@H](C)NC(=O)[C@H](C)NC(=O)[C@H](CC(C)C)N(C)C(=O)[C@H](C(C)C)NC(=O)[C@H](CC(C)C)N(C)C(=O)CN(C)C1=O [6-(5-Ethyl-11,17,26,29-tetraisobutyl-14,32-diisopropyl-1,7,10,16,20,23,25,28,31-nonamethyl-3,6,9,12,15,18,21,24,27,30,33-undecaoxo-1,4,7,10,13,16,19,22,25,28,31undecaaza-cyclotritriacont-2-yl)-6-hydroxy-5-methyl-hex-2-enoic acid methyl ester], the IC50 [1] is reported as 581 nM.
CC[C@@H]1NC(=O)[C@H]([C@H](O)[C@H](C)C/C=C/C(=O)O)N(C)C(=O)[C@H](C(C)C)N(C)C(=O)[C@H](CC(C)C)N(C)C(=O)[C@H](CC(C)C)N(C)C(=O)[C@@H](C)NC(=O)[C@H](C)NC(=O)[C@H](CC(C)C)N(C)C(=O)[C@H](C(C)C)NC(=O)[C@H](CC(C)C)N(C)C(=O)CN(C)C1=O [6-(5-Ethyl-11,17,26,29-tetraisobutyl-14,32-diisopropyl-1,7,10,16,20,23,25,28,31-nonamethyl-3,6,9,12,15,18,21,24,27,30,33-undecaoxo-1,4,7,10,13,16,19,22,25,28,31undecaaza-cyclotritriacont-2-yl)-6-hydroxy-5-methyl-hex-2-enoic acid] showed an IC50 [1] greater than 5000 nM.
Work on CC[C@@H]1NC(=O)[C@H]([C@H](O)[C@H](C)CCCC(=O)OCCF)N(C)C(=O)[C@H](C(C)C)N(C)C(=O)[C@H](CC(C)C)N(C)C(=O)[C@H](CC(C)C)N(C)C(=O)[C@@H](C)NC(=O)[C@H](C)NC(=O)[C@H](CC(C)C)N(C)C(=O)[C@H](C(C)C)NC(=O)[C@H](CC(C)C)N(C)C(=O)CN(C)C1=O [6-(5-Ethyl-11,17,26,29-tetraisobutyl-14,32-diisopropyl-1,7,10,16,20,23,25,28,31-nonamethyl-3,6,9,12,15,18,21,24,27,30,33-undecaoxo-1,4,7,10,13,16,19,22,25,28,31undecaaza-cyclotritriacont-2-yl)-6-hydroxy-5-methyl-hexanoic acid 2-fluoro-ethyl ester] yielded an IC50 [1] of 1540 nM.
Molecule CCOC(=O)CCC[C@@H](C)[C@@H](O)[C@H]1C(=O)N[C@@H](CC)C(=O)N(C)CC(=O)N(C)[C@@H](CC(C)C)C(=O)N[C@@H](C(C)C)C(=O)N(C)[C@@H](CC(C)C)C(=O)N[C@@H](C)C(=O)N[C@H](C)C(=O)N(C)[C@@H](CC(C)C)C(=O)N(C)[C@@H](CC(C)C)C(=O)N(C)[C@@H](C(C)C)C(=O)N1C [6-(5-Ethyl-11,17,26,29-tetraisobutyl-14,32-diisopropyl-1,7,10,16,20,23,25,28,31-nonamethyl-3,6,9,12,15,18,21,24,27,30,33-undecaoxo-1,4,7,10,13,16,19,22,25,28,31undecaaza-cyclotritriacont-2-yl)-6-hydroxy-5-methyl-hexanoic acid ethyl ester] has an IC50 [1] of 840 nM.
For CC[C@@H]1NC(=O)[C@H]([C@H](O)[C@H](C)CCCC(=O)OC)N(C)C(=O)[C@H](C(C)C)N(C)C(=O)[C@H](CC(C)C)N(C)C(=O)[C@H](CC(C)C)N(C)C(=O)[C@@H](C)NC(=O)[C@H](C)NC(=O)[C@H](CC(C)C)N(C)C(=O)[C@H](C(C)C)NC(=O)[C@H](CC(C)C)N(C)C(=O)CN(C)C1=O [6-(5-Ethyl-11,17,26,29-tetraisobutyl-14,32-diisopropyl-1,7,10,16,20,23,25,28,31-nonamethyl-3,6,9,12,15,18,21,24,27,30,33-undecaoxo-1,4,7,10,13,16,19,22,25,28,31undecaaza-cyclotritriacont-2-yl)-6-hydroxy-5-methyl-hexanoic acid methyl ester], the IC50 [1] was 890 nM.
With CC[C@@H]1NC(=O)[C@H]([C@H](O)[C@H](C)CCCC(=O)OCSC)N(C)C(=O)[C@H](C(C)C)N(C)C(=O)[C@H](CC(C)C)N(C)C(=O)[C@H](CC(C)C)N(C)C(=O)[C@@H](C)NC(=O)[C@H](C)NC(=O)[C@H](CC(C)C)N(C)C(=O)[C@H](C(C)C)NC(=O)[C@H](CC(C)C)N(C)C(=O)CN(C)C1=O [6-(5-Ethyl-11,17,26,29-tetraisobutyl-14,32-diisopropyl-1,7,10,16,20,23,25,28,31-nonamethyl-3,6,9,12,15,18,21,24,27,30,33-undecaoxo-1,4,7,10,13,16,19,22,25,28,31undecaaza-cyclotritriacont-2-yl)-6-hydroxy-5-methyl-hexanoic acid methylsulfanylmethylester] the IC50 [1] was greater than 5000 nM.
With CC[C@@H]1NC(=O)[C@H]([C@H](O)[C@H](C)C/C=C/C(=O)OCSC)N(C)C(=O)[C@H](C(C)C)N(C)C(=O)[C@H](CC(C)C)N(C)C(=O)[C@H](CC(C)C)N(C)C(=O)[C@@H](C)NC(=O)[C@H](C)NC(=O)[C@H](CC(C)C)N(C)C(=O)[C@H](C(C)C)NC(=O)[C@H](CC(C)C)N(C)C(=O)CN(C)C1=O [Cyclosporin A analogue] the IC50 [3] was 348 nM and the IC50 [4] was 2150 nM.
